Data: patent publication US20120264735A1 (priority 2009, published 2012)

target: T1, c-Met kinase (recombinant c-Met) (Homo sapiens, UniProt P08581); assay: In vitro kinase assay I (homogeneous time-resolved fluorescence tyrosine kinase assay); assay type: biochemical
T1 construct: 0.27 nM recombinant c-Met
In short: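 Biotinylated peptide (0.5 μM) phosphorylated by 0.2 nM recombinant c-Met with 50 μM MgATP, 60 min at room temperature, pH 7.4, 5% DMSO. EDTA stop; HTRF read with Eu-anti-phosphotyrosine antibody and streptavidin-APC. IC50 from 4-parameter logistic fit.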

T1 sequence (P08581 25-1390): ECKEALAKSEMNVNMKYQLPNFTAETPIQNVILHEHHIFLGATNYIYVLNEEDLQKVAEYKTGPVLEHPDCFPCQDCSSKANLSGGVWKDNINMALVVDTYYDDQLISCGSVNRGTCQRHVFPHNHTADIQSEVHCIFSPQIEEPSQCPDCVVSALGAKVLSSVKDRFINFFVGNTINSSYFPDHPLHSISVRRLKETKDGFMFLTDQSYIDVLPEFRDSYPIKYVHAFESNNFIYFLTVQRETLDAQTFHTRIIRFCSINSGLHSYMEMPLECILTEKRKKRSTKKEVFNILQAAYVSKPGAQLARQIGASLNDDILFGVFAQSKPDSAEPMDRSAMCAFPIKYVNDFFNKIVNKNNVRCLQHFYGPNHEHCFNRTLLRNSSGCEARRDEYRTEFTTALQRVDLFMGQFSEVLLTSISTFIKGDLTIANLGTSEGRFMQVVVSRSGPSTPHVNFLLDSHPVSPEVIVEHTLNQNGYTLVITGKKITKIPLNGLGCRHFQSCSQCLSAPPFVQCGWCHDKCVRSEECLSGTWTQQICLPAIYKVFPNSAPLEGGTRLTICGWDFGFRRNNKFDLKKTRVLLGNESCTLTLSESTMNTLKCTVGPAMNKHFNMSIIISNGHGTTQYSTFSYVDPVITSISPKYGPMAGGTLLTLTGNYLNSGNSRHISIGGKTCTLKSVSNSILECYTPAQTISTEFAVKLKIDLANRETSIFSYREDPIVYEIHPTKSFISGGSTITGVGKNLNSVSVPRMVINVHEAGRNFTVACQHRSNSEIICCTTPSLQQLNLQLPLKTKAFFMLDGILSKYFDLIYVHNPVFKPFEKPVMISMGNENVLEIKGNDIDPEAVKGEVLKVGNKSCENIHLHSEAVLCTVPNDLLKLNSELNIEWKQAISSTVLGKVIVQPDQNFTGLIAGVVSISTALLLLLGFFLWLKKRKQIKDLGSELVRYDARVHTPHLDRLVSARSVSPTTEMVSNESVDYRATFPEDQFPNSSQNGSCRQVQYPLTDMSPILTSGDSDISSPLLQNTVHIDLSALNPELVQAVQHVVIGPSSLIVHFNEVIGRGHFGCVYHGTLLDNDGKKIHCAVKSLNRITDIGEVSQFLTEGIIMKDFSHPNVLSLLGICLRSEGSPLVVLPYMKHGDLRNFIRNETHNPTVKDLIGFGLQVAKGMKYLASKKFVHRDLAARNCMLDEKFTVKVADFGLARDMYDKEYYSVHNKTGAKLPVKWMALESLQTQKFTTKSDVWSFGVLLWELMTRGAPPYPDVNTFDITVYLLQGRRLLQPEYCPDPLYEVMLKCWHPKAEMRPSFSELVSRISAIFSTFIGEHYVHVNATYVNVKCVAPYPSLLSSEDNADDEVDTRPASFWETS

First: CCn1cc(-n2ccc(=O)c(C(C)c3cccc(-c4ncc(O)cn4)c3)n2)cn1 (single isomer, unassigned) [Example 258, 1-(1-ethyl-1H-pyrazol-4-yl)-3-{(1R or S)-1-[3-(5-hydroxypyrimidin-2-yl)phenyl]ethyl}pyridazin-4(1H)-one]
Second: CCn1cc(-n2ccc(=O)c(C(C)c3cccc(-c4ncc(OC)cn4)c3)n2)cn1 (single isomer, unassigned) [Example 332, 1-(1-ethyl-1H-pyrazol-4-yl)-3-{(1S or R)-1-[3-(5-methoxypyrimidin-2-yl)phenyl]ethyl}pyridazin-4(1H)-one]
The IC50 of the first is lower: under 100 nM for the first, 100 to 1000 nM for the second.

`CCn1cc(-n2ccc(=O)c(C(C)c3cccc(-c4ncc(OCC5(F)CCN(C(=O)OC(C)(C)C)CC5)cn4)c3)n2)cn1` (single isomer, unassigned) [Example 290, tert-butyl 4-({[2-(3-{(1R or S)-1-[1-(1-ethyl-1H pyrazol-4-yl)-4-oxo-1,4-dihydropyridazin-3-yl]ethyl}phenyl)pyrimidin-5-yl]oxy}methyl)-4-fluoropiperidine-1-carboxylate] and `CCn1cc(-n2ccc(=O)c(C(C)c3cccc(-c4ncc(OCC5CCN(C(=O)OC(C)(C)C)CC5)cn4)c3)n2)cn1` (single isomer, unassigned) [Example 291, tert-butyl 4-({[2-(3-{(1R or S)-1-[1-(1-ethyl-1H-pyrazol-4-yl)-4-oxo-1,4-dihydropyridazin-3-yl]ethyl}phenyl)pyrimidin-5-yl]oxy}methyl)piperidine-1-carboxylate] cannot be ordered by IC50: under 100 nM for the first, under 100 nM for the second.

`CCn1cc(-n2ccc(=O)c(C(C)c3cccc(-c4ncc(OC5CN(C(=O)OC(C)(C)C)C5)cn4)c3)n2)cn1` (single isomer, unassigned) [Example 292, tert-butyl 3-{[2-(3-{(1R or S)-1-[1-(1-ethyl-1H-pyrazol-4-yl)-4-oxo-1,4-dihydropyridazin-3-yl]ethyl}phenyl)pyrimidin-5-yl]oxy}azetidine-1-carboxylate] and `CCn1cc(-n2ccc(=O)c(C(C)c3cccc(-c4ncc(OC5CNC5)cn4)c3)n2)cn1` (single isomer, unassigned) [Example 340, 3-((1R or S)-1-{3-[5-(azetidin-3-yloxy)pyrimidin-2-yl]phenyl}ethyl)-1-(1-ethyl-1H-pyrazol-4-yl)pyridazin-4(1H)-one] cannot be ordered by IC50: under 100 nM for the first, under 100 nM for the second.

`CCn1cc(-n2ccc(=O)c(C(C)c3cccc(-c4ncc(OC(C)C)cn4)c3)n2)cn1` (single isomer, unassigned) [Example 293, 1-(1-ethyl-1H-pyrazol-4-yl)-3-[(1R or S)-1-{3-[5-(1-methylethoxy)pyrimidin-2-yl]phenyl}ethyl]pyridazin-4(1H)-one] and `CCn1cc(-n2ccc(=O)c(C(C)c3cccc(-c4ncc(OC)cn4)c3)n2)cn1` (single isomer, unassigned) [Example 333, 1-(1-ethyl-1H-pyrazol-4-yl)-3-{(1R or S)-1-[3-(5-methoxypyrimidin-2-yl)phenyl]ethyl}pyridazin-4(1H)-one] cannot be ordered by IC50: under 100 nM for the first, under 100 nM for the second.

`CCn1cc(-n2ccc(=O)c(C(C)c3cccc(-c4ncc(OCC(F)F)cn4)c3)n2)cn1` (single isomer, unassigned) [Example 294, 3-[(1R or S)-1-{3-[5-(2,2-difluoroethoxy)pyrimidin-2-yl]phenyl}ethyl]-1-(1-ethyl-1H-pyrazol-4-yl)pyridazin-4(1H)-one] and `CCn1cc(-n2ccc(=O)c(C(C)c3cccc(-c4ncc(OCCO)cn4)c3)n2)cn1` (single isomer, unassigned) [Example 295, 1-(1-ethyl-1H-pyrazol-4-yl)-3-[(1R or S)-1-{3-[5-(2-hydroxyethoxy)pyrimidin-2-yl]phenyl}ethyl]pyridazin-4(1H)-one] cannot be ordered by IC50: under 100 nM for the first, under 100 nM for the second.

`CCn1cc(-n2ccc(=O)c(C(C)c3cccc(-c4ncc(OCC5CCO5)cn4)c3)n2)cn1` (single isomer, unassigned) [Example 296, 1-(1-ethyl-1H-pyrazol-4-yl)-3-[(1R or S)-1-{3-[5-(oxetan-2-ylmethoxy)primidin-2-yl]phenyl}ethyl]pyridazin-4(1H)-one] and `CCn1cc(-n2ccc(=O)c(C(C)c3cccc(-c4ncc(OCC5CCCO5)cn4)c3)n2)cn1` (single isomer, unassigned) [Example 298, 1-(1-ethyl-1H-pyrazol-4-yl)-3-[(1R or S)-1-{3-[5-(tetrahydrofuran-2-ylmethoxy)pyrimidin-2-yl]phenyl}ethyl]pyridazin-4(1H)-one] cannot be ordered by IC50: under 100 nM for the first, under 100 nM for the second.

`CCn1cc(-n2ccc(=O)c(C(C)c3cccc(-c4ncc(OC5CCOC5)cn4)c3)n2)cn1` (single isomer, unassigned) [Example 297, 1-(1-ethyl-1H-pyrazol-4-yl)-3-[(1R or S)-1-{3-[5-(tetrahydrofuran-3-yloxy)pyrimidin-2-yl]phenyl}ethyl]pyridazin-4(1H)-one] and `CCn1cc(-n2ccc(=O)c(C(C)c3cccc(-c4ncc(OCC5COCCO5)cn4)c3)n2)cn1` (single isomer, unassigned) [Example 299, 3-[(1R or S)-1-{3-[5-(1,4-dioxan-2-ylmethoxy)pyrimidin-2-yl]phenyl}ethyl]-1-(1-ethyl-1H-pyrazol-4-yl)pyriazin-4(1H)-one] cannot be ordered by IC50: under 100 nM for the first, under 100 nM for the second.

`CCn1cc(-n2ccc(=O)c(C(C)c3cccc(-c4ncc(OCCN5CCOCC5)cn4)c3)n2)cn1` (single isomer, unassigned) [Example 300, 1-(1-ethyl-1H-pyrazol-4-yl)-3-[(1R or S)-1-{3-[5-(2-morpholin-4-ylethoxy)pyrimidin-2-yl]phenyl}ethyl]pyridazin-4(1H)-one] and `CCn1cc(-n2ccc(=O)c(C(C)c3cccc(-c4ncc(OCC5(C)COC5)cn4)c3)n2)cn1` (single isomer, unassigned) [Example 304, 1-(1-ethyl-1H-pyrazol-4-yl)-3-[(1R or S)-1-(3-{5-[(3-methyloxetan-3-yl)methoxy]pyrimidin-2-yl}phenyl)ethyl]pyridazin-4(1H)-one] cannot be ordered by IC50: under 100 nM for the first, under 100 nM for the second.

`CCn1cc(-n2ccc(=O)c(C(C)c3cccc(-c4ncc(OCc5cc(C)no5)cn4)c3)n2)cn1` (single isomer, unassigned) [Example 301, 1-(1-ethyl-1H-pyrazol-4-yl)-3-[(1R or S)-1-(3-{5-[(3-methylisoxazol-5-yl)methoxy]pyrimidin-2-yl}phenyl)ethyl]pyridazin-4(1H)-one] and `CCn1cc(-n2ccc(=O)c(C(C)c3cccc(-c4ncc(OCc5noc(C)n5)cn4)c3)n2)cn1` (single isomer, unassigned) [Example 302, 1-(1-ethyl-1H-pyrazol-4-yl)-3-[(1R or S)-1-(3-{5-[(5-methyl-1,2,4-oxadiazol-3-yl)methoxy]pyrimidin-2-yl}phenyl)ethyl]pyridazin-4(1H)-one] cannot be ordered by IC50: under 100 nM for the first, under 100 nM for the second.

`CCn1cc(-n2ccc(=O)c(C(C)c3cccc(-c4ncc(OCCn5cccn5)cn4)c3)n2)cn1` (single isomer, unassigned) [Example 303, 1-(1-ethyl-1H-pyrazol-4-yl)-3-[(1R or S)-1-(3-{5-[2-(1H-pyrazol-1-yl)ethoxy]pyrimidin-2-yl}phenyl)ethyl]pyridazin-4(1H)-one] and `CCn1cc(-n2ccc(=O)c(C(C)c3cccc(-c4ncc(OCC5CCNCC5)cn4)c3)n2)cn1` (single isomer, unassigned) [Example 339, 1-(1-ethyl-1H-pyrazol-4-yl)-3-((1R or S)-1-{3-[5-(piperidin-4-ylmethoxy)pyrimidin-2-yl]phenyl}ethyl)pyridazin-4(1H)-one] cannot be ordered by IC50: under 100 nM for the first, under 100 nM for the second.

`CCn1cc(-n2ccc(=O)c(C(C)c3cccc(-c4ncc(OCC5(F)CCNCC5)cn4)c3)n2)cn1` (single isomer, unassigned) [Example 338, 1-(1-ethyl-1H-pyrazol-4-yl)-3-[(1R or S)-1-(3-{5-[(4-fluoropiperidin-4-yl)methoxy]pyrimidin-2-yl}phenyl)ethyl]pyridazin-4(1H)-one] and `CC(c1cccc(-c2ncc(O[C@@H]3CCNC[C@H]3F)cn2)c1)c1nn(-c2cnn(C)c2)ccc1=O` (single isomer, unassigned) [Example 341, 3-{(1R or S)-1-[3-(5-{[(3R or S,4R or S)-3-Fluoropiperidin-4-yl]oxy}pyrimidin-2-yl)phenyl]ethyl}-1-(1-methyl-1H-pyrazol-4-yl)pyridazin-4(1H)-one] cannot be ordered by IC50: under 100 nM for the first, under 100 nM for the second.

`CC(c1cccc(-c2ncc(O[C@@H]3CCNC[C@H]3F)cn2)c1)c1nn(-c2cnn(C)c2)ccc1=O` (single isomer, unassigned) [Example 342, 3-{(1R or S)-1-[3-(5-{[(3R or S, 4R or S)-3-fluoropiperidin-4-yl]oxy}pyrimidin-2-yl)phenyl]ethyl}-1-(1-methyl-1H-pyrazol-4-yl)pyridazin-4(1H)-one] and `Cn1cc(-n2ccc(=O)c(Cc3cccc(-c4ncc(OCC5COCCO5)cn4)c3)n2)cn1` (single isomer, unassigned) [Example 347, 3-(3-{5-[(2R or-S)-1,4-dioxan-2-ylmethoxy]pyrimidin-2-yl}benzyl)-1-(1-methyl-1H-pyrazol-4-yl)pyridazin-4(1H)-one] cannot be ordered by IC50: under 100 nM for the first, under 100 nM for the second.

First: CC(c1cccc(-c2ncc(O[C@@H]3CCNC[C@H]3F)cn2)c1)c1nn(-c2cnn(C)c2)ccc1=O (single isomer, unassigned) [Example 343, 3-{(1R or S)-1-[3-(5-{[(3R or S, 4R or S)-3-fluoropiperidin-4-yl]oxy}pyrimidin-2-yl)phenyl]ethyl}-1-(1-methyl-1H-pyrazol-4-yl)pyridazin-4(1H)-one]
Second: O=c1ccn(-c2ccc(F)c(F)c2)nc1Cc1cccc(-c2ncc(OCC3COCCO3)cn2)c1 (single isomer, unassigned) [Example 345, 1-(3,4-difluorophenyl)-3-(3-{5-[(2R or S)-1,4-dioxan-2-ylmethoxy]pyrimidin-2-yl}benzyl)pyridazin-4(1H)-one]
The IC50 of the first is higher: 100 to 1000 nM for the first, under 100 nM for the second. The second is the more potent here.

Compound `O=c1ccn(-c2ccc(F)c(F)c2)nc1Cc1cccc(-c2ncc(OCC3COCCO3)cn2)c1` (single isomer, unassigned) [Example 346, 1-(3,4-difluorophenyl)-3-(3-{5-[(2S or R-1,4-dioxan-2-ylmethoxy]pyrimidin-2-yl}benzyl)pyridazin-4(1H)-one] has an IC50 of under 100 nM.
